Test results from patent US8546440B2, “Substituted bicyclic imidazole derivatives as gamma secretase modulators” (Janssen Pharmaceuticals, Inc., priority 2008, dated 2013).

How the values were obtained:
[1] = tested on: Aβ42; assay: Screening for γ-secretase-modulating activity, Method 1: Aβ42 sandwich ELISA in supernatant of SKNBE2 cells carrying APP 695 wild type (Tables 12a, 12b); type: cell-based; conditions: Homo sapiens
Method in brief: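 Aβ42 levels in the supernatant were measured by ELISA with 450 nm colorimetric read-out after 18 h compound exposure of wild-type APP695 SKNBE2 cells plated one day earlier. IC50 was fitted with a 4-parameter model, either with fixed top/bottom and a Hill slope of 1, or as averaged values from % of vehicle control; WST-1 was used to flag cytotoxicity.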

[2] = tested on: Aβtotal; assay: Screening for γ-secretase-modulating activity, Method 1: Aβtotal sandwich ELISA in supernatant of SKNBE2 cells carrying APP 695 wild type (Tables 12a, 12b); type: cell-based; conditions: Homo sapiens
Method in brief: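 Aβtotal in conditioned medium was measured by 6E10/biotin-4G8 sandwich ELISA with fluorogenic peroxidase read-out. Cells were wild-type APP 695 SKNBE2, treated 18 hours in glutamine-supplemented Ultraculture. IC50 came from 4-parameter fits of inhibition, or percent of control, against concentration; toxicity was checked by WST-1.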

[3] = tested on: Aβtotal; assay: Demonstration of in vivo efficacy: Aβtotal lowering in brain after single oral dose (Table 13); conditions: mouse brain soluble fraction, mean, compared to untreated animals
Description: (§1) To determine whether acute administration of an Aβ42 lowering agent would reduce Aβ42 levels in vivo, non-transgenic rodents, e.g. mice or rats were used. Alternatively, two to three month old Tg2576 mice expressing APP695 containing the “Swedish” variant can be used or a transgenic mouse model developed by Dr. Fred Van Leuven (K. U. Leuven, Belgium) and co-workers, with neuron-specific expression of a clinical mutant of the human amyloid precursor protein [V717I] (Moechars et al., 1999 J. Biol. Chem. 274, 6483). Young transgenic mice have high levels of Aβ in the brain but no detectable Aβ deposition. At approximately 6-8 months of age, the transgenic mice start to display spontaneous, progressive accumulation of β-amyloid (Aβ) in the brain, eventually resulting in amyloid plaques within the subiculum, hippocampus and cortex. Animals treated with the Aβ42 lowering agent were examined and compared to those untreated or treated with vehicle and brain levels of soluble Aβ42 and total Aβ would be quantitated by standard techniques, for example, using ELISA. Treatment periods varied from hours to days and were adjusted based on the results of the Aβ42 lowering once a time course of onset of effect could be established.
(§2) A typical protocol for measuring Aβ42 lowering in vivo is shown but it is only one of many variations that could be used to optimize the levels of detectable Aβ. For example, Aβ42 lowering compounds were formulated in 20% of Captisol® (a sulfobutyl ether of β-cyclodextrin) in water or 20% hydroxypropyl β cyclodextrin. The Aβ42 lowering agents were administered as a single oral dose or by any acceptable route of administration to overnight fasted animals. After four hours, the animals were sacrificed and Aβ42 levels were analysed.
(§3) Blood was collected by decapitation and exsanguinations in EDTA-treated collection tubes. Blood was centrifuged at 1900 g for 10 minutes at 4° C. and the plasma recovered and flash frozen for later analysis. The brain was removed from the cranium and hindbrain. The cerebellum was removed and the left and right hemisphere were separated. The left hemisphere was stored at −18° C. for quantitative analysis of test compound levels. The right hemisphere was rinsed with phosphate-buffered saline (PBS) buffer and immediately frozen on dry ice and stored at −80° C. until homogenization for biochemical assays.
Mouse brains were resuspended in 10 volumes of 0.4% DEA (diethylamine)/50 mM NaCl pH 10 (for non-transgenic animals) or 0.1% 3-[3-cholamidopropyl)-dimethyl-ammonio]-1-propanesulfonate (CHAPS) in tris buffered saline (TBS) (for transgenic animals) containing protease inhibitors (Roche-11873580001 or 04693159001) per gram of tissue, e.g. for 0.158 g brain, add 1.58 ml of 0.4% DEA. All samples were sonicated for 30 seconds on ice at 20% power output (pulse mode). Homogenates were centrifuged at 221.300×g for 50 min. The resulting high speed supernatants were then transferred to fresh tubes and were optionally further purified before the next step. A portion of the supernatant was neutralized with 10% 0.5 M Tris-HCl and this was used to quantify Aβtotal. […]
In this model at least 20% Aβ42 lowering compared to untreated animals would be advantageous.

[4] = tested on: Aβtotal; assay: Screening for γ-secretase-modulating activity, Method 2: Aβtotal Alphalisa in supernatant of SKNBE2 cells carrying APP 695 wild type (Table 12c); type: cell-based; conditions: Homo sapiens, Method 2, Table 12c, incubated overnight
Method: (§4) Screening was carried out using SKNBE2 cells carrying the APP 695—wild type, grown in Dulbecco's Modified Eagle's Medium/Nutrient mixture F-12 (DMEM/NUT-mix F-12) (HAM) provided by Invitrogen (cat no. 10371-029) containing 5% Serum/Fe supplemented with 1% non-essential amino acids, 1-glutamine 2 mM, Hepes 15 mM, penicillin 50 U/ml (units/ml) en streptomycin 50 μg/ml. Cells were grown to near confluency.
(§5) The screening was performed using a modification of the assay as described in Citron et al (1997) Nature Medicine 3: 67. Briefly, cells were plated in a 384-well plate at 10^4 cells/well in Ultraculture (Lonza, BE12-725F) supplemented with 1% glutamine (Invitrogen, 25030-024), 1% non-essential amino acid (NEAA), penicillin 50 U/ml en streptomycin 50 μg/ml in the presence of test compound at different test concentrations. The cell/compound mixture was incubated overnight at 37° C., 5% CO2, The next day the media were assayed by two sandwich immuno-assays, for Aβ42 and Aβtotal.
(§6) Aβtotal and Aβ42 concentrations were quantified in the cell supernatant using the Aphalisa technology (Perkin Elmer). Alphalisa is a sandwich assay using biotinylated antibody attached to streptavidin coated donorbeads and antibody conjugated to acceptor beads. In the presence of antigen, the beads come into close proximity. The excitation of the donor beads provokes the release of singlet oxygen molecules that trigger a cascade of energy transfer in the acceptor beads, resulting in light emission. To quantify the amount of Aβ42 in the cell supernatant, monoclonal antibody specific to the C-terminus of Aβ42 (JRF/cAβ42/26) was coupled to the receptor beads and biotinylated antibody specific to the N-terminus of Aβ (JRF/AβN/25) was used to react with the donor beads. To quantify the amount of Aβtotal in the cell supernatant, monoclonal antibody specific to the N-terminus of Aβ (JRF/AβN/25) was coupled to the receptor beads and biotinylated antibody specific to the mid region of Aβ (biotinylated 4G8) was used to react with the donor beads.
(§7) To obtain the values reported in Table 12c, the data are calculated as percentage of the maximum amount of amyloid Beta 42 measured in the absence of the test compound. The sigmoidal dose response curves were analyzed using non-linear regression analysis with percentage of the control plotted against the log concentration of the compound. A 4-parameter equation was used to determine the IC50.

[5] = tested on: Aβ42; assay: Screening for γ-secretase-modulating activity, Method 2: Aβ42 Alphalisa in supernatant of SKNBE2 cells carrying APP 695 wild type (Table 12c); type: cell-based; conditions: Homo sapiens, Method 2, Table 12c, incubated overnight
Method: as §4, §5, §6, §7

[6] = tested on: Aβ42; assay: Demonstration of in vivo efficacy: Aβ42 lowering in brain after single oral dose (Table 13); conditions: mouse brain soluble fraction, ELISA, mean, compared to untreated animals
Description: as §1, §2, §3
Mouse brains were resuspended in 10 volumes of 0.4% DEA (diethylamine)/50 mM NaCl pH 10 (for non-transgenic animals) or 0.1% 3-[3-cholamidopropyl)-dimethyl-ammonio]-1-propanesulfonate (CHAPS) in tris buffered saline (TBS) (for transgenic animals) containing protease inhibitors (Roche-11873580001 or 04693159001) per gram of tissue, e.g. for 0.158 g brain, add 1.58 ml of 0.4% DEA. All samples were sonicated for 30 seconds on ice at 20% power output (pulse mode). Homogenates were centrifuged at 221.300×g for 50 min. The resulting high speed supernatants were then transferred to fresh tubes and were optionally further purified before the next step. A portion of the supernatant was neutralized with 10% 0.5 M Tris-HCl and this was used to quantify Aβtotal.
The obtained supernatants were purified with Water Oasis HLB reverse phase columns (Waters Corp., Milford, Mass.) to remove non-specific immunoreactive material from the brain lysates prior subsequent Aβ detection. Using a vacuum manifold, all solutions were passed through the columns at a rate of approximately 1 ml per minute, so the vacuum pressure was adjusted accordingly throughout the procedure. Columns were preconditioned with 1 ml of 100% MeOH, before equilibration with 1 ml of H2O. Non-neutralized brain lysates were loaded onto the columns. The loaded samples were then washed twice with the first wash performed with 1 ml of 5% MeOH, and the second wash with 1 ml of 30% MeOH. Finally, the Aβ was eluted from the columns and into 100×30 mm glass tubes, with a solution of 90% MeOH with 2% NH4OH. […]

[7] = Method 1, Table 12a, SKNBE2 cells carrying APP 695 wild type, compounds 18 hours, ELISA, curve top and bottom fixed to 100 and 0, hill slope 1
[8] = Table 12b, Method 1, SKNBE2 cells carrying APP 695 wild type, cell supernatant ELISA, averaged IC50 values, percentage of control vs log concentration
[9] = Table 12b, Method 1, SKNBE2 cells carrying APP 695 wild type, cell supernatant ELISA, averaged IC50 values

| Compound | IC50 [1, 7] [nM] | IC50 [1, 8] [nM] | IC50 [2, 7] [nM] | IC50 [2, 9] [nM] | melting point [°C] | IC50 [4] [nM] | IC50 [5] [nM] | Aβtotal (% Ctrl)_Mean [3] [% Ctrl] | Aβ42 (% Ctrl)_Mean [6] [% Ctrl] |
| --- | --- | --- | --- | --- | --- | --- | --- | --- | --- |
| COc1cccc(-c2nc3c(Nc4ccc(-n5ccnc5)c(OC)c4)cccn3c2C)c1 [Compound 35] | 19 | 19 | > 1000 | > 3020 | 124.2 |  |  |  |  |
| COc1cc(Nc2cccn3c(C)c(-c4ccc(CC(C)C)cc4)nc23)ccc1-n1cnc(C)c1 [Compound 38] | 54 | 51 | > 3000 | > 3020 | 224.6 |  |  |  |  |
| CCc1cn(-c2ccc(Nc3cccn4c(C)c(-c5cccc(OC)c5)nc34)cc2OC)cn1 [Compound 63] | 29 | 29 | > 3000 | > 3020 | 159.9 |  |  |  |  |
| COc1cc(Nc2cccn3cc(-c4ccccc4C)nc23)ccc1-n1cnc(C)n1 [Compound 70] |  |  |  |  |  | > 3020 | 68 | 99 | 84 |
| Cc1ncn(-c2ccc(Nc3cccn4c(C)c(C)nc34)cc2)n1 [Compound 79] |  | 7410 |  | > 10000 | 230.6 |  |  |  |  |
| COc1cc(Nc2cccn3cc(C)nc23)ccc1-n1cncn1 [Compound 80] |  | 3800 |  | > 10000 | 147.5 |  |  |  |  |
| Cc1ccc(C(F)(F)F)cc1-c1cn2cccc(Nc3ccc(-n4ncnc4C)c(F)c3)c2n1 [Compound 130] |  | 178 |  | > 3020 | 210 |  |  |  |  |
| COc1nc(Nc2cccn3c(C)c(-c4ccccc4Cl)nc23)ccc1-n1cnc(C)n1 [Compound 145] |  |  |  |  | 250.3 | > 10000 | 7 |  |  |
| COc1nc(Nc2cc(C(C)C)nn3cc(-c4ccccc4Cl)nc23)ccc1-n1cnc(C)c1 [Compound 163] |  |  |  |  | 179.3 | 8320 | 166 |  |  |

Continued, in another order:

| IC50 [1, 7] [nM] | IC50 [1, 8] [nM] | IC50 [2, 7] [nM] | IC50 [2, 9] [nM] | melting point [°C] | IC50 [4] [nM] | IC50 [5] [nM] | Compound | Aβtotal (% Ctrl)_Mean [3] [% Ctrl] | Aβ42 (% Ctrl)_Mean [6] [% Ctrl] |
| --- | --- | --- | --- | --- | --- | --- | --- | --- | --- |
| 595 | 589 | > 5000 | > 30200 | 193.4 |  |  | COc1cc(Nc2cccn3cc(-c4ccc(C#N)cc4)nc23)ccc1-n1cnc(C)c1 [Compound 31] |  |  |
| 6440 | 9550 | > 10000 | > 10000 | 213.1 |  |  | Cc1cn2cccc(Nc3ccc(-n4cnc(C)n4)cc3)c2n1 [Compound 78] |  |  |
|  | 89 |  | > 3020 | 127.5 | 6610 | 32 | COc1cc(Nc2cccn3cc(-c4cc(C#N)ccc4C)nc23)ccc1-n1cnc(C)c1 [Compound 105] |  |  |
|  | 89 |  | > 10000 | 149.5 | > 10000 | 56 | COCCc1c(-c2ccc(F)cc2)nc2c(Nc3ccc(-n4cnc(C)n4)c(OC)c3)cccn12 [Compound 127] |  |  |
|  |  |  |  | 165.1 | 6920 | 251 | COc1cc(Nc2cccn3c(OC)c(-c4ccc(F)cc4)nc23)ccc1-n1cnc(C)n1 [Compound 132] |  |  |
